Experiments:
[1] = tested on: HBV viral production in AD38 cells; test: Viral load production in AD38 cells by quantitative PCR of the HBV core sequence in supernatant; format: cell-based; settings: Hepatitis B virus, 144 h; 10 μM compound, 6 days at 37° C., viral load in supernatant compared against DMSO control wells; read-out: AD38 Viral Load (CpAM/DMSO %) at 10 μM
Method in brief: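 Read-out is TaqMan qPCR of the HBV core region in supernatant, quantitated against standards and referenced to DMSO controls (≥3 per plate). Cells: AD38 at 50,000/well, exposed to compound (added as 10× stock in 10% DMSO) for 6 days at 37° C.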

AD38 cells = test: Viability of AD38 cells (Promega CellTiter-Glo) at the end of compound treatment; format: cell-based; settings: 10 μM compound, 6 days, luminescence normalized against DMSO control wells (controls being 100%)
Method in brief: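 Luminescent CellTiter-Glo read-out, taken after supernatant was swapped for tetracycline-free 2% FBS medium with 1% DMSO, gave percent viability relative to DMSO controls set at 100%. Cells were plated at 50,000/well and exposed to compound, added as a 10× stock in 10% DMSO, for 6 days at 37° C.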

Row | Structure (SMILES) | activity at 10 µM [1] [%] | AD38 Viability Normalized Result (CPAM/DMSO %) at 10 μM (AD38 cells) [%]
1 | CC(=O)N1CCC(CNC(=O)c2ccc3c(c2)NC(=O)c2ccccc2S3)CC1 [Compound 1601, N-((1-acetylpiperidin-4-yl)methyl)-11-oxo-10, 11-dihydrodibenzo [b,f] [1,4] thiazepine-8-carboxamide] | 62 | 106
2 | O=C(NCc1cncs1)c1ccc2c(c1)NC(=O)c1ccccc1N2 [Compound 1602, 11-oxo-N-(thiazol-5-ylmethyl)-10, 11-dihydro-5H-dibenzo [b,e] [1,4] diazepine-8-carboxamide] | 38 | 116
3 | Cc1nnc(CCNC(=O)c2ccc3c(c2)NC(=O)c2ccccc2S3)o1 [Compound 1603] | 6 | 91
4 | CCc1ncc(CNC(=O)c2ccc3c(c2)NC(=O)c2ccccc2S3)s1 [Compound 1604] | 0 | 105
5 | O=C(NCc1scnc1-c1ccccc1)c1ccc2c(c1)NC(=O)c1ccccc1S2 [Compound 1605] | 25 | 106
6 | O=C(NCC1CCOC1)c1ccc2c(c1)NC(=O)c1ccccc1S2 (centres unmarked) [Compound 1606] | 7 | 104
7 | O=C(NCC1CCOCC1)c1ccc2c(c1)NC(=O)c1ccccc1S2 [Compound 1607] | 14 | 93
8 | Cl.O=C(NCC1CCNC1)c1ccc2c(c1)NC(=O)c1ccccc1S2 (centres unmarked) [Compound 1608, 11-oxo-N-(pyrrolidin-3-ylmethyl)-10, 11-dihydrodibenz[b,f] [1,4] thiazepine-8-carboxamide hydrochloride] | 63 | 103
9 | Cl.O=C(NCC1CCNCC1)c1ccc2c(c1)NC(=O)c1ccccc1S2 [Compound 1609, 11-oxo-N-(piperidin-4-ylmethyl)-10, 11-dihydrodibenzo [b,f] [1,4] thiazepine-8-carboxamide hydrochloride] | 68 | 99
10 | CC(C)c1ncc(CNC(=O)c2ccc3c(c2)NC(=O)c2ccccc2S3)s1 [Compound 1611] | 0 | 130
11 | COc1ncc(CNC(=O)c2ccc3c(c2)NC(=O)c2ccccc2S3)s1 [Compound 1612] | 0 | 112
12 | Nc1ncc(CNC(=O)c2ccc3c(c2)NC(=O)c2ccccc2S3)s1 [Compound 1613] | 0 | 122
13 | CC(C)c1ncsc1CNC(=O)c1ccc2c(c1)NC(=O)c1ccccc1S2 [Compound 1614] | 2 | 45
14 | CC(=O)N1CCC(CNC(=O)c2ccc3c(c2)NC(=O)c2ccccc2S3)C1 (centres unmarked) [Compound 1615, N-((1-acetylpyrrolidin-3-yl)methyl)-11-oxo-10, 11-dihydrodibenzo [b,f] [1,4] thiazepine-8-carboxamide] | 32 | 123
15 | O=C(NCCc1cnco1)c1ccc2c(c1)NC(=O)c1ccccc1S2(=O)=O [Compound 1616] | 5 | 115
16 | O=C(NCCc1cncs1)c1ccc2c(c1)NC(=O)c1ccccc1S2(=O)=O [Compound 1617] | 1 | 118
17 | O=C(NCCc1ccc(-c2ccccc2)cc1)c1ccc2c(c1)NC(=O)c1ccccc1S2(=O)=O [Compound 1618] | 0 | 44
18 | CN(C)S(=O)(=O)c1ccc(CCNC(=O)c2ccc3c(c2)NC(=O)c2ccccc2S3(=O)=O)cc1 [Compound 1619] | 12 | 122
19 | O=C(NCc1ccccc1)c1ccc2c(c1)NC(=O)c1ccccc1S2(=O)=O [Compound 1620] | 3 | 111

From patent publication US10183936B2, “Hepatitis B core protein allosteric modulators” (priority 2014, dated 2019)
